Laboratory results published in PubChem BioAssay AID1963873 (Molecular Pharmacology Branch, DTP, NCI, 2024).

System: 276233-004-R-J1-PDC KRAS spheroids with HUVEC/MSC, viability
Assay: Anticancer human tumor 276233-004-R-J1-PDC patient-derived colon adenocarcinoma cell line growth inhibition [KRAS2]
Settings: for IC50: curve of first compound; for viability, T/C: stronger effect = lower value
How it was run: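 Combination screen of spheroid viability in tumor-cell co-cultures with endothelial (HUVEC) and mesenchymal stem cell stroma. Each agent was tested in half-log dilutions, topping at clinical Cmax or at 10 microM without a known Cmax.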

[1] = second compound 0.1 µM, first compound 0.0316 µM
[2] = second compound 0.1 µM, first compound 0.1 µM
[3] = second compound 0.316 µM, first compound 0.0316 µM
[4] = second compound 0.316 µM, first compound 0.1 µM
[5] = second compound 1 µM, first compound 0.0316 µM
[6] = second compound 1 µM, first compound 0.1 µM
[7] = second compound 3.16 µM, first compound 0.0316 µM
[8] = second compound 3.16 µM, first compound 0.1 µM
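Also: cells exposed to agents for seven days before viability read.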
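For viability, T/C in this document: 100% = DMSO vehicle control wells and lower values mean fewer viable cells.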

Structure (SMILES): Cn1ncnc1[C@H]1c2n[nH]c(=O)c3cc(F)cc(c23)N[C@@H]1c1ccc(F)cc1 + CNCc1ccccc1-c1csc(C(C)Nc2nc(C)nc3cc(OC)c(OC)cc23)c1
- IC50 (second compound 0.1 µM): > 100 nM
- IC50 (second compound 0.316 µM): > 100 nM
- IC50 (second compound 1 µM): > 100 nM
- IC50 (second compound 3.16 µM): < 0.316 nM
- IC50 (second compound 10 µM): < 0.316 nM
- viability, T/C (second compound 0.1 µM, first compound 0.000316 µM): 113%
- viability, T/C (second compound 0.1 µM, first compound 0.001 µM): 115%
- viability, T/C (second compound 0.1 µM, first compound 0.00316 µM): 98.2%
- viability, T/C (second compound 0.1 µM, first compound 0.01 µM): 107%
- viability, T/C [1]: 87.6%
- viability, T/C [2]: 120%
- viability, T/C (second compound 0.316 µM, first compound 0.000316 µM): 96.1%
- viability, T/C (second compound 0.316 µM, first compound 0.001 µM): 119%
- viability, T/C (second compound 0.316 µM, first compound 0.00316 µM): 116%
- viability, T/C (second compound 0.316 µM, first compound 0.01 µM): 124%
- viability, T/C [3]: 83.2%
- viability, T/C [4]: 98.5%
- viability, T/C (second compound 1 µM, first compound 0.000316 µM): 56.7%
- viability, T/C (second compound 1 µM, first compound 0.001 µM): 69.5%
- viability, T/C (second compound 1 µM, first compound 0.00316 µM): 75.1%
- viability, T/C (second compound 1 µM, first compound 0.01 µM): 68.2%
- viability, T/C [5]: 50.2%
- viability, T/C [6]: 78%
- viability, T/C (second compound 3.16 µM, first compound 0.000316 µM): 9.27%
- viability, T/C (second compound 3.16 µM, first compound 0.001 µM): 0.64%
- viability, T/C (second compound 3.16 µM, first compound 0.00316 µM): 0.7%
- viability, T/C (second compound 3.16 µM, first compound 0.01 µM): 0.62%
- viability, T/C [7]: 0.53%
- viability, T/C [8]: 0.74%
- viability, T/C (second compound 10 µM, first compound 0.000316 µM): 0.22%
- viability, T/C (second compound 10 µM, first compound 0.001 µM): 0.22%
- viability, T/C (second compound 10 µM, first compound 0.00316 µM): 0.22%
- viability, T/C (second compound 10 µM, first compound 0.01 µM): 0.2%
- viability, T/C (second compound 10 µM, first compound 0.0316 µM): 0.18%
- viability, T/C (second compound 10 µM, first compound 0.1 µM): 2.9%

Structure (SMILES): O=C(c1cc(Cc2n[nH]c(=O)c3ccccc23)ccc1F)N1CCN(C(=O)C2CC2)CC1 + C=CC(=O)N1CCN(c2nc(OCC3CCCN3C)nc3c2CCN(c2cccc4cccc(C)c24)C3)CC1CC#N
- IC50 (second compound 0.0316 µM): > 10000 nM
- IC50 (second compound 0.1 µM): > 10000 nM
- IC50 (second compound 0.316 µM): > 10000 nM
- IC50 (second compound 1 µM): > 10000 nM
- IC50 (second compound 3.16 µM): < 31.6 nM
- viability, T/C (second compound 0.0316 µM, first compound 0.0316 µM): 114%
- viability, T/C (second compound 0.0316 µM, first compound 0.1 µM): 109%
- viability, T/C (second compound 0.0316 µM, first compound 0.316 µM): 101%
- viability, T/C (second compound 0.0316 µM, first compound 1 µM): 93.9%
- viability, T/C (second compound 0.0316 µM, first compound 3.16 µM): 91.2%
- viability, T/C (second compound 0.0316 µM, first compound 10 µM): 82.5%
- viability, T/C [1]: 98.1%
- viability, T/C [2]: 109%
- viability, T/C (second compound 0.1 µM, first compound 0.316 µM): 100%
- viability, T/C (second compound 0.1 µM, first compound 1 µM): 87%
- viability, T/C (second compound 0.1 µM, first compound 3.16 µM): 87.1%
- viability, T/C (second compound 0.1 µM, first compound 10 µM): 83.1%
- viability, T/C [3]: 110%
- viability, T/C [4]: 94.8%
- viability, T/C (second compound 0.316 µM, first compound 0.316 µM): 93.4%
- viability, T/C (second compound 0.316 µM, first compound 1 µM): 68.7%
- viability, T/C (second compound 0.316 µM, first compound 3.16 µM): 83.4%
- viability, T/C (second compound 0.316 µM, first compound 10 µM): 76.3%
- viability, T/C [5]: 81.5%
- viability, T/C [6]: 89.8%
- viability, T/C (second compound 1 µM, first compound 0.316 µM): 110%
- viability, T/C (second compound 1 µM, first compound 1 µM): 87.6%
- viability, T/C (second compound 1 µM, first compound 3.16 µM): 82.8%
- viability, T/C (second compound 1 µM, first compound 10 µM): 85%
- viability, T/C [7]: 55.4%
- viability, T/C [8]: 37.9%
- viability, T/C (second compound 3.16 µM, first compound 0.316 µM): 57.2%
- viability, T/C (second compound 3.16 µM, first compound 1 µM): 43.9%
- viability, T/C (second compound 3.16 µM, first compound 3.16 µM): 44.9%
- viability, T/C (second compound 3.16 µM, first compound 10 µM): 37.1%
